In patent US20130197077A1, “Bicyclic Furanones with Low Toxicity for Microbial Control” (priority 2012, published 2013):

Columns and labels:
3T3 mouse fibroblasts = assay: Cytotoxicity to mammalian cells, survival (%) by OD450; type: cell-based; details: 100 μM; 0 h, 24 h and 48 h recovery after removal of drugs
Protocol: (§1) In this test, the mammalian cells used were 3T3 mouse fibroblasts and SK-N-SH human neuroblastomas, and 0 h, 24 h, and 48 h, refer to recovery time of cells after removal of drugs. At the beginning of the experiment, the survival of the cells is assumed to be 100 percent. The survival percentage is calculated using the following formula: […]
(§2) The sample OD was obtained from the wells containing cells and drugs, and the control OD was obtained from wells containing cells+1% DMSO.

[1] = system: SK-N-SH human neuroblastoma; assay: as above; type: cell-based; details: 100 μM; 0 h, 24 h and 48 h recovery after removal of drugs
Protocol: as §1, §2

E. coli RP437 = system: E. coli RP437
Text: FIG. 10 is a graph comparing the cytotoxicity of the exemplary bicyclic brominated furanones according to the present invention verses an exemplary conventional brominated furanone relative to E. Coli RP437;

## CC1=C(Br)/C(=C/Br)OC1=O [BF8]
3T3 mouse fibroblasts
  cytotoxicity to 3T3 mouse fibroblasts: cytotoxic
[1]
  cytotoxicity to SK-N-SH human neuroblastomas: cytotoxic
E. coli RP437
  toxicity to the growth of E. coli RP437: more toxic
